The source of these data is PMC7679387, “VZHE-039, a novel antisickling agent that prevents erythrocyte sickling under both hypoxic and anoxic conditions” (Scientific Reports, 2020).

Series [1] can be described thus: Partitioning into RBCs in whole blood. The format is in vitro ADME. As to conditions: 100–300 µM; normal whole human blood, 37 °C. The protocol:
(§1) Toxicity concerns remain an important issue in the use of aromatic aldehydes in treating a chronic disease, such as SCD, especially as it involves modification of a large amount of in vivo present Hb. […] We evaluated key metrics such as in vitro RBC partitioning and ADME/safety profiles, in order to glean important safety insights. […] We also assessed VZHE-039 at 10 μM for its bi-directional cell permeability using Caco-2 cell monolayers[53],[54].
We incubated test compounds at expected blood concentrations (100–300 uM) with whole blood (mouse or human), after which we analyzed compound concentrations separately in plasma, whole blood and RBCs. Previously, we have established and validated reversed-phase HPLC and LC/MS methods for accurately measuring the compounds in blood. Validated reversed-phase HPLC was conducted on a Hitachi system, using a Waters C18 column, and a gradient of 0.1% Formic Acid in water (mobile phase A), and 0.1% Formic Acid in Acetonitrile (mobile phase B) at a flow rate of 1 mL/min in 12 min. UHPLC and LC/MS analyses were conducted at the Bioanalytical Core Facility at The Children’s Hospital of Philadelphia. […] 5 uL of each sample was injected at analyzed using a gradient of: (A) 5 mM ammonium acetate in deionized water (pH adjusted to 4.8 by formic acid); and (B) 5 mM ammonium acetate in (90:10) acetonitrile: water, at a flow rate of 0.5 mL/minute. […]

The next series concerns the target T1, HbA (Homo sapiens, UniProt P69905).
T1 construct: fresh normal adult whole blood (Hct of 30%); from tissue; host or cells: normal adult whole blood (red blood cells)
As to the kind of experiment: In vitro time-dependent Hb oxygen equilibrium study using normal whole blood (tonometry). The class given is cell-based. The note with it: 2 mM, Hct 30%, 37 °C, 1-24 h. The source says:
The antisickling activity of aromatic aldehydes is dependent on Schiff-base interaction between the aldehyde moiety and the Hb αVal1 amines (Schiff-base adduct) and the increase in the protein affinity for oxygen[30]–[40]. […] To overcome this pharmacologic limitation, Tucaresol and Voxelotor, two potent antisickling agents utilized a ortho-hydroxyl moiety (relative to the aldehyde group) on the benzaldehyde ring to form intramolecular hydrogen-bond interaction with the aldehyde group to form hemiacetal-like moiety, which led to significant reduction in oxidative metabolism of the aldehyde[28],[50]. […] VZHE-039, however, incorporates this ortho-hydroxyl moiety on the benzene ring, which is expected to increase its oxidative metabolic stability. This was tested by incubating 2 mM of VZHE-039 (with vanillin and TD-7 as controls) with fresh normal adult whole blood (Hct of 30%) at 37 °C as a surrogate measure of oxidative metabolism. At defined time points (1, 4, 8, 12 and 24 h), aliquot samples were drawn, and subsequently analyzed for their P50-shifts relative to the initial P50 value, using three-point tonometry. In parallel, an untreated control sample was also assessed to control for any time-dependent, but drug-independent changes in P50 values. […] These findings confirm the importance of the ortho-hydroxyl group in aromatic aldehydes in preventing or reducing enzymatic metabolism of aldehyde in RBCs.
Normal whole blood samples (hematocrit 30%) in the absence (control) or presence of 2 mM concentration VZHE-039 (solubilized in DMSO) were incubated at 37 °C for 24 h with shaking (at 140 rpm). At 1, 4, 8, 12 and 24 h time intervals, aliquots of this mixture were removed and then subjected to OEC analysis using tonometry as previously described. Vanillin and TD-7 were used as positive controls, while DMSO was tested as negative control. Briefly, the compound-treated blood samples were incubated in IL 237 tonometers (Instrumentation Laboratories, Inc. Lexington, MA) for approximately 10 min at 37 °C, and allowed to equilibrate at oxygen tensions 6, 20, and 40 mmHg. The samples were then aspirated into an ABL 700 Automated Blood Gas Analyzer (Radiometer) to determine the pH, partial pressure of CO2 (pCO2), partial pressure of oxygen (pO2), and Hb oxygen saturation values (SO2). The measured values of pO2 (mmHg) and SO2 at each pO2 value were then subjected to a non-linear regression analysis using the program Scientist (Micromath, Salt Lake City, UT) to estimate P50 as previously reported.

The subject of another series is Caco-2 cell monolayers. As to the kind of experiment: Caco-2 bi-directional permeability. The format is in vitro ADME, human. The note with it: Caco-2 monolayers. The protocol:
as §1
(§2) Human epithelial colorectal adenocarcinoma (Caco-2) cells (HTB-37) were cultured in T75 flasks using complete Dulbecco’s Modified Eagles Medium (DMEM) containing 10% fetal bovine serum (FBS), 1% glutamine, 1% penicillin and 1% streptomycin, at 37 °C in a 5% CO2 atmosphere. Cells were passaged at 80–90% confluency using 0.05% trypsin–EDTA and the medium was changed every other day. Following this, the cells were trypsinized, suspended in medium and applied to a Millipore 96-well plate where they were cultured as monolayers at a density of 25,000 cells/well. The cells were incubated in a 37 °C/5% CO2 incubator to allow cell attachment and proliferation. Media was changed every 2–3 days for 21 days when cells reached 100% confluency. For Apical → Basolateral (A → B) permeability, 10 μM VZHE-039 was added to the apical (A) side and the amount of permeation determined on the basolateral (B) side; for Basolateral → Apical (B → A) permeability, 10 μM VZHE-039 was added to the B-side and the amount of permeation was determined on the A side. The A-side buffer contained 100 μM lucifer yellow dye, in Transport Buffer (1.98 g/L glucose in 10 mM HEPES, 1 × Hank’s Balanced Salt Solution) pH 7.4, and the B-side buffer used was the Transport Buffer at pH 7.4. Caco-2 cells were incubated with 10 μM VZHE0-39 in these buffers for 2 h. Ranitidine (low permeability), Warfarin (high permeability) and Talinolol (P-gp efflux control) were used as controls. […] Following centrifugation, the supernatant for donor and receiver side samples was analyzed by LC–MS/MS to determine peak area ratios.
(§3) The efflux ratio (Re) was calculated as: Re=PappB→A/PappA→B
Background: Passage across Caco-2 layers is used to estimate intestinal permeability.

Series [2] is described as follows: Caco-2 bi-directional permeability. The format is in vitro ADME, human. As to conditions: human, Caco-2, pH 7.4; read-out: Efflux ratio (Re). The method, then:
as §1, §2, §3

SMILES strings stand for the structures.

T1 sequence (P69905 2-142 limits assumed): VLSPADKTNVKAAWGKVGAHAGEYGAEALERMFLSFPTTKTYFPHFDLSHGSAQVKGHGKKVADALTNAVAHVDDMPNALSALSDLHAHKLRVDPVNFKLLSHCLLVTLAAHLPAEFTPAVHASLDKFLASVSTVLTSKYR
T1 sequence (P68871 2-147 partner limits assumed): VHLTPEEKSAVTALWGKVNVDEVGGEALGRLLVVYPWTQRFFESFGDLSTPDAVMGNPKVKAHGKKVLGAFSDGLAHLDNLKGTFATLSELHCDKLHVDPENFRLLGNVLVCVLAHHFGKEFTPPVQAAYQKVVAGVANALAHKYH

In the case of `O=Cc1c(O)cccc1OCc1cccc(CO)n1` [VZHE-039, 2-((6-(Hydroxymethyl)pyridin-2-yl)methoxy)-6-hydroxybenzaldehyde], the “Partitioned into the RBC compartment” value in series [1] is recorded as “approximately 85%”. For the same compound, the “Time course of P50-shift (in words)” value at HbA is on record as “sustained P50-shift throughout the entire 24-h experimental period”. For the same compound, in the series on Caco-2 cell monolayers (10 μM), the “Permeability (in words)” value was “high in vitro GI permeability”. Also, in the series with Caco-2 cell monolayers, the “Efflux transporter (P-gp) substrate (in words)” value is on record as “not an efflux transporter (P-gp) substrate”. The efflux ratio at 2 h, 10 µM in series [2] is 0.85.
